What was measured:
[1] = Henry solubility constant Hcp at 293 K (mol/(m3 Pa))
[2] = Henry solubility constant Hcp at 298.15 K (mol/(m3 Pa))
[3] = Henry solubility constant Hcp at 296 K (mol/(m3 Pa))
[4] = Henry solubility constant Hcp at 310 K (mol/(m3 Pa))
[5] = Henry solubility constant Hcp at 303 K (mol/(m3 Pa))
[6] = reference: Yurteri et al. (1987)
[7] = reference: McIntosh and Heffron (2000)
[8] = reference: Meynier et al. (2003)
[9] = reference: Hartkopf and Karger (1973)
[10] = reference: Arp and Schmidt (2004)
[11] = reference: Miller and Stuart (2000)

For `Cc1ccccc1C` [1,2-dimethylbenzene], the “Henry solubility constant Hcp at 293 K” value [1, 6] was 0.0023, the “Henry solubility constant Hcp” value ([2]; reference: Bissonette et al. (1990)) was 0.0021 and the “Henry solubility constant Hcp” value ([2]; reference: Li et al. (2008)) was 0.0023. For the same compound, the “Henry solubility constant Hcp” value ([2]; reference: Robbins et al. (1993)) was 0.002, the “Henry solubility constant Hcp” value ([2]; reference: Sieg et al. (2009)) was 0.002 and the “Henry solubility constant Hcp” value ([2]; reference: Turner et al. (1996)) was 0.0014. For the same compound, the “Henry solubility constant Hcp” value ([2]; reference: Wasik and Tsang (1970)) was 0.0029, the “Henry solubility constant Hcp at 296 K” value ([3]; reference: Anderson (1992)) was 0.0017 and the “Henry solubility constant Hcp at 310 K” value [4, 7] was 0.00096.
With `C=CC(C)(C)O` [2-methyl-3-buten-2-ol] the “Henry solubility constant Hcp at 303 K” value ([5]; reference: Iraci et al. (1999)) was 0.64.
For `CC(=O)OCCC(C)C` [3-methylbutyl ethanoate], the “Henry solubility constant Hcp” value ([2]; reference: Ammari and Schroen (2019)) was 0.022 and the “Henry solubility constant Hcp at 303 K” value [5, 8] was 0.088.
For `CCC(=O)CC` [3-pentanone], the “Henry solubility constant Hcp” value ([2]; reference: Hovorka et al. (2019)) was 0.11, the “Henry solubility constant Hcp” value ([2]; reference: Ji and Evans (2007)) was 0.16 and the “Henry solubility constant Hcp at 303 K” value ([5]; reference: Saylor et al. (1938)) was 9.7e-05.
With `CCC/C=C/C=O` [(E)-2-hexenal] the “Henry solubility constant Hcp” value ([2]; reference: Buttery et al. (1971)) was 0.2 and the “Henry solubility constant Hcp at 303 K” value [5, 8] was 0.9.
In the case of `C[Si]1(C)O[Si](C)(C)O[Si](C)(C)O[Si](C)(C)O[Si](C)(C)O1` [decamethylcyclopentasiloxane], the “Henry solubility constant Hcp” value ([2]; reference: Xu and Kropscott (2012)) is reported as 3e-07, the “Henry solubility constant Hcp” value ([2]; reference: Xu and Kropscott (2014)) is reported as 2.8e-07 and the “Henry solubility constant Hcp at 296 K” value ([3]; reference: David et al. (2000)) is reported as 7.4e-05.
For `CCOP(=S)(OCC)Oc1cc(C)nc(C(C)C)n1` [diazinon], the “Henry solubility constant Hcp” value ([2]; reference: Feigenbrugel et al. (2004a)) was 15, the “Henry solubility constant Hcp at 296 K” value ([3]; reference: Fendinger and Glotfelty (1988)) was 88 and the “Henry solubility constant Hcp at 296 K” value ([3]; reference: Fendinger et al. (1989)) was 84.
With `ClCCl` [dichloromethane] the “Henry solubility constant Hcp at 293 K” value ([1]; reference: Chiang et al. (1998)) was 0.0034, the “Henry solubility constant Hcp at 293 K” value ([1]; reference: Pearson and McConnell (1975)) was 0.0033 and the “Henry solubility constant Hcp at 293 K” value ([1]; reference: Yu (1992)) was 0.0044. For the same compound, the “Henry solubility constant Hcp at 293 K” value [1, 6] was 0.0052, the “Henry solubility constant Hcp” value ([2]; reference: Chen et al. (2012)) was 0.0035 and the “Henry solubility constant Hcp” value ([2]; reference: Gossett (1987)) was 0.0046. The “Henry solubility constant Hcp” value ([2]; reference: Gossett et al. (1985)) was 0.0038, the “Henry solubility constant Hcp” value [2, 9] was 0.0042 and the “Henry solubility constant Hcp” value ([2]; reference: Lincoff and Gossett (1984)) was 0.0034. For the same compound, the “Henry solubility constant Hcp” value ([2]; reference: Lutsyk et al. (2005)) was 0.0043, the “Henry solubility constant Hcp” value ([2]; reference: Park et al. (1997)) was 0.0043 and the “Henry solubility constant Hcp” value ([2]; reference: Warner et al. (1980)) was 0.0031. For the same compound, the “Henry solubility constant Hcp at 296 K” value ([3]; reference: David et al. (2000)) was 0.0039 and the “Henry solubility constant Hcp at 310 K” value [4, 7] was 0.0034.
For `CC(C)OC(C)C` [diisopropyl ether], the “Henry solubility constant Hcp” value [2, 10] was 0.0039, the “Henry solubility constant Hcp” value ([2]; reference: Hwang et al. (2010)) was 0.015 and the “Henry solubility constant Hcp” value ([2]; reference: Nielsen et al. (1994)) was 0.0048. The “Henry solubility constant Hcp at 296 K” value [3, 11] was 0.0043.
With `[N-]=[N+]=O` [dinitrogen monoxide] the “Henry solubility constant Hcp” value ([2]; reference: Carius (1855)) was 0.00025, the “Henry solubility constant Hcp” value ([2]; reference: Gabel and Schultz (1973)) was 0.00025 and the “Henry solubility constant Hcp” value ([2]; reference: Geffcken (1904)) was 0.00024. For the same compound, the “Henry solubility constant Hcp” value ([2]; reference: Joosten and Danckwerts (1972)) was 0.00024, the “Henry solubility constant Hcp” value ([2]; reference: Kunerth (1922)) was 0.00024 and the “Henry solubility constant Hcp” value ([2]; reference: Orcutt and Seevers (1937a)) was 0.00024. The “Henry solubility constant Hcp” value ([2]; reference: Roth (1897)) was 0.00023, the “Henry solubility constant Hcp” value ([2]; reference: Saidman et al. (1966)) was 0.00024 and the “Henry solubility constant Hcp” value ([2]; reference: Siebeck (1909)) was 0.00024. The “Henry solubility constant Hcp” value ([2]; reference: Weiss and Price (1980)) was 0.00024, the “Henry solubility constant Hcp at 296 K” value ([3]; reference: Nunn (1958)) was 0.00022 and the “Henry solubility constant Hcp at 310 K” value ([4]; reference: Bachofen and Farhi (1971)) was 0.00019. The “Henry solubility constant Hcp at 310 K” value ([4]; reference: Sy and Hasbrouck (1964)) was 0.00014.
For `CCOC=O` [ethyl methanoate], the “Henry solubility constant Hcp” value [2, 9] was 0.0019, the “Henry solubility constant Hcp” value ([2]; reference: Kutsuna et al. (2005)) was 0.034 and the “Henry solubility constant Hcp” value ([2]; reference: Wittig et al. (2001)) was 0.04. For the same compound, the “Henry solubility constant Hcp at 303 K” value ([5]; reference: Richon et al. (1985)) was 0.023.
In the case of `CCCCC(=O)OCC` [ethyl pentanoate], the “Henry solubility constant Hcp at 303 K” value [5, 8] is reported as 0.14.
For `CCOC(C)(C)C` [ethyl tert-butyl ether], the “Henry solubility constant Hcp” value [2, 10] was 0.0061, the “Henry solubility constant Hcp” value ([2]; reference: Haimi et al. (2006)) was 0.0064 and the “Henry solubility constant Hcp” value ([2]; reference: Hwang et al. (2010)) was 0.12. The “Henry solubility constant Hcp” value ([2]; reference: Sieg et al. (2009)) was 0.0063 and the “Henry solubility constant Hcp at 296 K” value [3, 11] was 0.0042.
